{"source": "patent US20070010465A1", "about": "(priority 2005, published 2007)", "key": {"[1]": {"test_system": "acute myelogenous leukemia", "conditions": "valspodar arm, enrollment halted; cited from earlier work"}, "[2]": {"target": "T1, P-gp (Homo sapiens, UniProt P08183)", "T1 construct": "Pharmacodynamic assessments of cellular P-gp function were conducted using an accumulation assay with DiOC2 and flow cytometry; endogenous in cells; host or cells: circulating NK cells and leukemic blasts from AML patients", "T1 sequence (P08183 whole entry)": "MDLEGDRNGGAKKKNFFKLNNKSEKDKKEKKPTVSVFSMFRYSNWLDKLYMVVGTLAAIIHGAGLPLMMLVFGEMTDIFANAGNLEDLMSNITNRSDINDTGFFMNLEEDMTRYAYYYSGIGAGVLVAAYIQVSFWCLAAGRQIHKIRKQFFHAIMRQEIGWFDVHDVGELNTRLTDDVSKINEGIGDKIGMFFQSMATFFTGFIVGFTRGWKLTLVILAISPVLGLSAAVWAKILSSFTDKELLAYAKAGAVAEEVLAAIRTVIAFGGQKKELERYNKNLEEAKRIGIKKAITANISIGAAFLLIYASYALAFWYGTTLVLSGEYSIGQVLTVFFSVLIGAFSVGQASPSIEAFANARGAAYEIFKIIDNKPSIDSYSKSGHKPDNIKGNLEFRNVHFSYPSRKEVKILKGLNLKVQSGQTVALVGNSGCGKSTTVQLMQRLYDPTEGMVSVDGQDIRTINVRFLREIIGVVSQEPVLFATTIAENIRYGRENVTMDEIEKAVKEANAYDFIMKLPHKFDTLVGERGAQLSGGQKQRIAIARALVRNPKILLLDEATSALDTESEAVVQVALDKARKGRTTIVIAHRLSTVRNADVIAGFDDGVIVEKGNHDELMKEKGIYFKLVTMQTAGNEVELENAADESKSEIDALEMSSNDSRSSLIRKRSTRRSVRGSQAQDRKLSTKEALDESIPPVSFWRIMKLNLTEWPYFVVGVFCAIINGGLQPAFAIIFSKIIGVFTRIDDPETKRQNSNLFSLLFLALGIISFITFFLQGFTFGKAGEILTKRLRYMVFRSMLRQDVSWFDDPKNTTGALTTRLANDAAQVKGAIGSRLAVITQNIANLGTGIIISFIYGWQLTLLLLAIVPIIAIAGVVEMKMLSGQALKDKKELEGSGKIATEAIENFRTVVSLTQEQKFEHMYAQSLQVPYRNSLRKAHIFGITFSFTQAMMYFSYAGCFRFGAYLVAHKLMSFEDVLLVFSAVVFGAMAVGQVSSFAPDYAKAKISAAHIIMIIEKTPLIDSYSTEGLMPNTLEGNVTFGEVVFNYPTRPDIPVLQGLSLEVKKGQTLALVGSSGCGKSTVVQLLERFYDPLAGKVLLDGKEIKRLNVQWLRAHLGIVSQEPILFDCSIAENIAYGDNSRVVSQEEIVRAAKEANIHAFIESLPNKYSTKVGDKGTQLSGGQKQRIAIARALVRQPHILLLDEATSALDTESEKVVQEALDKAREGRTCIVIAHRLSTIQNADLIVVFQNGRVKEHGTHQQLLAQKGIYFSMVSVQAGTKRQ", "test": "cellular P-gp function, DiOC2 accumulation assay with flow cytometry on circulating NK cells and leukemic blasts", "type": "in vivo, Patients with AML", "procedure": "Cytarabine was also administered (100 mg/m^2/day) starting after the first dose of daunorubicin as a continuous intravenous infusion on days 1-7. Blood samples were taken at intervals for pharmacokinetic and pharmacodynamic studies. Pharmacokinetic drug determinations were conducted by HPLC. Pharmacodynamic assessments of cellular P-gp function were conducted using an accumulation assay with DiOC2 and flow cytometry. P-gp function was assessed on circulating natural killer (NK) cells and leukemic blasts. […] Means of 3 patients for each time point are shown."}, "[3]": {"conditions": "several oncolytics, preclinical models; cited from earlier work"}}, "data": [{"compound": "C/C=C/C[C@@H](C)C(=O)[C@H]1C(=O)N[C@@H](C(C)C)C(=O)N(C)CC(=O)N(C)[C@@H](CC(C)C)C(=O)N[C@@H](C(C)C)C(=O)N(C)[C@@H](CC(C)C)C(=O)N[C@@H](C)C(=O)N[C@H](C)C(=O)N(C)[C@@H](CC(C)C)C(=O)N(C)[C@@H](CC(C)C)C(=O)N(C)[C@@H](C(C)C)C(=O)N1C", "note": "[valspodar]", "values": [{"measurement": "early mortality", "setting": "[1]", "value": "excessive early mortality"}]}, {"compound": "O[C@@H](COc1cccc2ncccc12)CN1CCN([C@@H]2c3ccccc3[C@@H]3[C@H](c4ccccc42)C3(F)F)CC1", "note": "[Zosuquidar]", "values": [{"measurement": "time to potent inhibition of P-gp function after start of zosuquidar infusion", "setting": "[2]; 700 mg/day continuous intravenous infusion", "value": "≤ 2", "unit": "h"}, {"measurement": "duration of inhibition of P-gp functional activity after zosuquidar infusion was halted", "setting": "[2]; after 72 hour infusion", "value": "at least 12 hours"}, {"measurement": "pharmacokinetic (PK) interactions with oncolytics", "setting": "[3]", "value": "minimal"}]}]}
